Experimental data published in publication PMC5651845, “A New Generation of Arachidonic Acid Analogues as Potential Neurological Agent Targeting Cytosolic Phospholipase A2” (Scientific Reports, 2017).
One block for each molecule: values may come before it.

Legend:
[1] = PAMPA with porcine brain lipids (BBB permeation); conditions: for order of Pe values of reference compounds: similar conditions
Protocol: Thus to explore whether 2i is able to penetrate into the brain, we used PAMPA with porcine brain lipids as the lipid barrier. […] A minimum Pe of […] × 10^−6 cm/s has been cited as the threshold for permeability across the blood brain barrier.
The Parallel Artificial Membrane Permeability Assay (PAMPA) was used to determine the effective permeability (Pe) of 2i. The method reported by Di et al.[53] was followed with modifications. Determinations were carried out on MultiScreen-IP PAMPA assay (donor) plates (MAIPNTR10) and MultiScreen Receiver Plates (MATRNPS50) from Millipore Corporation (USA) with porcine polar brain lipids (Avanti Polar Lipids Inc, Alabaster, AL) as the lipid barrier.
An aliquot (5 µL) of 2% porcine brain lipids in dodecane (ReagentPlus®, Sigma Aldrich, USA) was dispensed into the donor well. A stock solution (5 mM) of 2i prepared in DMSO was diluted with 1x phosphate buffer (PBS, pH 7.4) to give a 50 µM solution. An aliquot (300 µL) of the solution was dispensed into the donor well and an equal volume of buffer (1xPBS with 1% DMSO) was added to the corresponding acceptor well. The donor and acceptor plates were assembled, the unit was placed in a humidified box and gently agitated on a mini shaker at room temperature (25 °C) for 16 h. After this time, aliquots (200 µL) were withdrawn from the donor and acceptor wells, diluted separately to 1 mL with PBS, and quantified at λmax of 290 nm on a Shimadzu UV-1800 Spectrophotometer.
300 µL aliquots of stock solutions (500 µM, 1xPBS, 0.1% DMSO) were dispensed to donor wells as described earlier. Quantification was by UV at λmax of 272 nm (caffeine), 284 nm (carbamazepine), 330 nm (quinidine), 280 nm (dopamine) and 288 nm (propanolol). […] Pe was obtained from (3):3 Pe=−2.303×{VAVD/[(VA+VD)×A×t]}×log{1−[(VA+VD)/(VD.S)]×CA(t)/CD(0)} where VA and VD are the volumes of acceptor (cm^3) and donor (cm^3) wells respectively, A is the area of the surface area of the membrane (0.24 cm^2), t is the permeation time (s). The Pe of each compound was obtained from at least 3 separate experiments using 2 different stock solutions. For each independent determination, triplicates (3 wells) were run for each compound.

[2] = biological target: T1, recombinant cPLA2 (Homo sapiens, UniProt P47712); assay: EnzChek phospholipase A2 fluorogenic assay (IC50); type: biochemical
T1 construct: purchased US Biological P4074-03R
T1 sequence (P47712 1-749): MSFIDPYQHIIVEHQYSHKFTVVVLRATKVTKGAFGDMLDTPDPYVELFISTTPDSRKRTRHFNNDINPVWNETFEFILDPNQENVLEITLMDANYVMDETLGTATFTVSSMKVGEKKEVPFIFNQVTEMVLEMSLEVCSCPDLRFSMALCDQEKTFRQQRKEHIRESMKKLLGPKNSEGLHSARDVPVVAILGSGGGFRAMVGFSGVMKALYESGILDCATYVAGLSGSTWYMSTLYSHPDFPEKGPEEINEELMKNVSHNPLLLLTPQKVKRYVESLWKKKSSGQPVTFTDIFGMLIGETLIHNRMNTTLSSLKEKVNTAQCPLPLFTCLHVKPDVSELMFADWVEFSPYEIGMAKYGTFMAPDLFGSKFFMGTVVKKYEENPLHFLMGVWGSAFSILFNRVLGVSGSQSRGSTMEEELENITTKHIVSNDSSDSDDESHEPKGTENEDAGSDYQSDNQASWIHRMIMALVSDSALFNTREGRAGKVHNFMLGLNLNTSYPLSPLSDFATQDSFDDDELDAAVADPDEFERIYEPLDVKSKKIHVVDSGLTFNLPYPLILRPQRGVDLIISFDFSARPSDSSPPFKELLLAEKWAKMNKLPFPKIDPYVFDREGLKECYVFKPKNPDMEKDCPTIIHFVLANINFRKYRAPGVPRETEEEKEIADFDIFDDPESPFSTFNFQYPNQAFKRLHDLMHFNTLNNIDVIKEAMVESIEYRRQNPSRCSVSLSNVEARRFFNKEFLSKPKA
Protocol: The assay was conducted as described above. Instead of adding a fixed concentration of the test compound, various concentrations of compound were reconstituted in DMSO. 48 μL of 1X phospholipase A2 reaction buffer were added into each well of a 96-wells plate. This was followed by addition of 1 μL of recombinant cPLA2 (P4074-03R, US Biological) and 1 μL of the respective concentration of the test compound dissolved in DMSO. The reaction was initiated by adding 50 μL of the substrate solution and incubating at room temperature for 1 h. Fluorescence was measured using a Varioskan plate reader by exciting at 485 nm, while fluorescence emission was detected at 515 nm. Positive control was performed when 1 μL of test compound was replaced by vehicle DMSO. IC50 was expressed as the mean value of duplicate wells from three experiments.

[3] = tested on: HEK293T cells; assay: MTS cell proliferation assay on HEK293T cells; type: cell-based, human; conditions: 10 μM, 48 h and 72 h, vs vehicle control
Protocol: (§1) To explore whether the inhibitors are cytotoxic, MTS assay were conducted on BV-2 cells, a murine microglial cell line derived from post-natal mouse cerebella, and HEK293T cells that are derived from human embryonic kidney. Both cell types were treated with 10 μM of 1a, 2g and 2i for 48 h and 72 h (Fig. 3A,B). Dimethyl sulfoxide (DMSO) vehicle control was also included as the compounds were dissolved in DMSO.
(§2) Cells were plated on a 96-wells plate and grown for 24 h to a density of 8000 cells per well for both HEK293T and BV-2 cells. Cells were cultured at 37 °C under a 5% CO2 environment in 100 μL of culture medium. Thereafter, the compound of interest dissolved in culture medium at a concentration of 10 μM was replaced into each well. DMSO was added as vehicle in the control group. 3 biological replicates were performed. The plates were then incubated at 37 °C with 5% CO2 for 48 h and 72 h. At each individual time point, 20 μL of CellTiter 96® AQueous One Solution (MTS reagent) was added into each well and re-incubated at 37 °C with 5% CO2 without light for 3 h. Colorimetric readings were taken using a Varioskan plate reader at 490 nm and analyzed. Three independent biological repeats with four technical replicates were performed.

[4] = tested on: BV-2 cells; assay: MTS cell proliferation assay on BV-2 cells; type: cell-based, murine; conditions: 10 μM, 48 h and 72 h, vs vehicle control
Protocol: as §1, §2

[5] = biological target: T1, recombinant cPLA2; assay: EnzChek phospholipase A2 fluorogenic assay (% activity) at 10 μM; type: biochemical; conditions: 10 μM compound; for remaining activity at 10 µM: 1 h, room temperature
Protocol: The compounds were evaluated with a fluorogenic PLA2 assay kit (EnzChek® Phospholipase A2 Assay Kit, Catalog No: E10217) at a standard 10 μM concentration. Potential inhibitors were determined by their ability to lower cPLA2 activity to a greater extent than 1a.
The assay was conducted according to the manufacturer’s instruction (E10217, Molecular Probes) with slight modification. Briefly, substrate solution was separately prepared by mixing 5 μL of DOPG, 5 μL of DOPC and 5 μL of substrate respectively in 1.5 mL of 1X phospholipase A2 reaction buffer. The mixture was vortexed vigorously for 3 min before allowing to stand at room temperature for 1 h. 48 μL of 1X phospholipase A2 reaction buffer were added into each well of a 96-wells plate. This was followed by addition of 1 μL of recombinant cPLA2 (P4074-03R, US Biological) and 1 μL of 1 mM of the respective compound dissolved in DMSO. The final concentration of the test compound achieved is 10 μM. The reaction was initiated by adding 50 μL of the substrate solution and incubating at room temperature for 1 h. Fluorescence was measured using a Varioskan plate reader (Thermo Scientific, MA, USA) by exciting at 485 nm, while fluorescence emission was detected at 515 nm. Positive control was performed when 1 μL of test compound was replaced by vehicle DMSO. % activity was expressed as the mean value of duplicate wells from three experiments. % activity was calculated by the following formula1 %activity=fluorescenceoftestedwell−background/fluorescenceofpostivecontrol−background

[6] = biological target: T2, sPLA2, human recombinant type V (Homo sapiens, UniProt P39877); assay: EnzChek phospholipase A2 fluorogenic assay (selectivity) with sPLA2; type: biochemical; conditions: 10 μM
T2 construct: purchased Cayman Chemical 10009563
T2 sequence (P39877 21-138): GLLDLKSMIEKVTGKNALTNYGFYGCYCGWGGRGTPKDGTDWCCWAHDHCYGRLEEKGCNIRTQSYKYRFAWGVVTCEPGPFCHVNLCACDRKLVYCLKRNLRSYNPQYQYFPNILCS
Protocol: To further explore their selectivity towards cPLA2, 10 μM of 2g and 2i were evaluated for their inhibition against recombinant sPLA2 using the fluorogenic PLA2 assay (Fig. 3C).
The assay was conducted as described above. Instead of adding cPLA2, it was replaced by sPLA2. 48 μL of 1X phospholipase A2 reaction buffer was added into each well of a 96-wells plate. This was followed by addition of 1 μL of sPLA2, human recombinant type V (10009563, Cayman Chemical) and 1 μL of 1 mM of the respective compound or thioetheramide-PC (62750, Cayman Chemical) dissolved in DMSO. The final concentration of the test compound achieved is 10 μM. The reaction was initiated by adding 50 μL of the substrate solution and incubating at room temperature for 1 h. Fluorescence was measured using a Varioskan plate reader by exciting at 485 nm, while fluorescence emission was detected at 515 nm. Positive control was performed when 1 μL of test compound was replaced by vehicle DMSO. % activity was expressed as the mean value of duplicate wells from four experiments. % activity was calculated by the following formula:2 %activity=fluorescenceoftestedwell−background/fluorescenceofpostivecontrol−background

[7] = biological target: T2, sPLA2, human recombinant type V; design: method as in PMID 2303420; conditions: cited from earlier work

Compound: C=C[C@H]1C[N@@]2CC[C@H]1C[C@@H]2[C@@H](O)c1ccnc2ccc(OC)cc12 [quinidine]
- order of Pe values of reference compounds [1]: propranolol > carbamazepine > quinidine > caffeine > dopamine

Compound: Cn1c(=O)c2c(ncn2C)n(C)c1=O [caffeine]
- order of Pe values of reference compounds [1]: propranolol > carbamazepine > quinidine > caffeine > dopamine

Compound: NCCc1ccc(O)c(O)c1 [dopamine]
- order of Pe values of reference compounds [1]: propranolol > carbamazepine > quinidine > caffeine > dopamine

- IC50 [2]: 5.3 ± 0.3 µM
- fold stronger cPLA2 inhibition than 1a (from IC50) ([2]; relative to 1a): 3 fold
- inhibition at 10 µM [5]: 84.5%
- remaining activity at 10 µM [5]: 15.5 ± 0.3%
- sPLA2 activity ([6]; relative to DMSO control): 184%
Compound: CCCCC/C=C\C/C=C\C/C=C\C/C=C\CCCCC(=O)NCCCCC(=O)O [2g]
- cytotoxicity (MTS) on HEK293T cells [3]: no significant toxic effects
- cytotoxicity (MTS) on BV-2 cells [4]: no significant toxic effects

- reduction of sPLA2 activity [6]: 62%
Compound: CCCCCCCCCCCCCCCCSC[C@H](COP(=O)(O)OCC[N+](C)(C)C)NC(=O)CCCCCCCCCCCCCCC [Thioetheramide-PC, reference compound]
- IC50 [7]: 2 µM

Compound: NC(=O)N1c2ccccc2C=Cc2ccccc21 [carbamazepine]
- order of Pe values of reference compounds [1]: propranolol > carbamazepine > quinidine > caffeine > dopamine

- IC50 [2]: 16.5 ± 3 µM
- inhibition at 10 µM [5]: 60%
- remaining activity at 10 µM [5]: 40 ± 0.9%
Compound: CCCCC/C=C\C/C=C\C/C=C\C/C=C\CCCC(=O)C(F)(F)F [1a, arachidonyl trifluoromethyl ketone, reference compound]
- cytotoxicity (MTS) on HEK293T cells [3]: no statistical differences in cell survival
- cytotoxicity (MTS) on BV-2 cells [4]: no statistical differences in cell survival

- effective permeability (Pe) ([1]; porcine brain lipids, 16 h, 25 °C): 2.00 ± 0.05 × 10^−6 cm/s
Compound: O=C1NC(=O)/C(=C/c2ccc(C(=O)NC[C@@H]3C[C@@H](SC(c4ccccc4)(c4ccccc4)c4ccccc4)CN3C(=O)c3ccccc3C(=O)c3ccc(F)cc3F)cc2)S1 [pyrrophenone]

Compound: CC(C)NCC(O)COc1cccc2ccccc12 (centres unmarked) [propranolol]
- order of Pe values of reference compounds [1]: propranolol > carbamazepine > quinidine > caffeine > dopamine
